Test results: patent US4981799A, “Acylamino acid racemase, production and use thereof” (priority 1987, dated 1991)

Columns and labels:
acylamino acid racemase [1] = assay: Substrate specificity of acylamino acid racemase (enzyme activity determination coupled with aminoacylase); type: biochemical, Streptomyces sp. Y-53; conditions: amount of produced methionine taken as 100, free amino acids checked by amino acid oxidase and HPLC; for Relative Activity (L-form substrate): D-aminoacylase of Y-53 strain coupled; for Relative Activity (D-form substrate): L-aminoacylase coupled
Protocol: Note that the relative activities in Table 3, where N^α -acylamino acids were used as substrates, were determined by the method of enzyme activity determination described in the term .circle.3 , with the values representing the found amount (mM) of the produced α-amino acids corresponding to respective substrates as calculated on the basis of the amount of produced methionine taken as 100. When the substrate was an L-N^α -acylamino acid, D-aminoacylase as produced by Y-53 strain was used in place of L-aminoacylase.

acylamino acid racemase [2] = assay: Influences of metal ions on enzyme activities; type: biochemical, Streptomyces sp. Y-53; conditions: for Relative enzyme activity, Additive Concentration 1 mM / Relative enzyme activity, Additive Concentration 10 mM: no additives taken as 100, cobalt chloride excluded; for Relative enzyme activity, Additive Concentration 1 mM: final concentration 1 mM; for Relative enzyme activity, Additive Concentration 10 mM: final concentration 10 mM
Protocol: Enzyme activities are determined by means of a mixed reaction system comprising 50 μl of a solution of the enzyme, 40 μl of a solution of the substrate, 10 μl of an L-aminoacylase solution and 400 μl of a 50 mM Tris-HCl buffer (pH 7.5 ). As the enzyme solution, a solution prepared by dissolving an acylamino acid racemase standard sample in a Tris-HCl buffer (pH 7.5 ) to 1 to 0.2 unit/ml was used; as the L-aminoacylase solution, a solution prepared by dissolving an L-aminoacylase standard sample (a commercially available product such as that produced by Sigma Co. may be used, but the L-aminoacylase extracted and purified from Y-53 strain was used in the present invention) in a Tris-HCl buffer (pH 7.5) to 40 to 8 units/ml.
The above solutions are mixed together by the sequential addition of the Tris-HCl buffer, substrate solution, L-aminoacylase solution and enzyme solution in this order, and reaction is initiated at 30° C. simultaneously with the addition of the enzyme solution.
For the determination of enzyme activities, the amount of methionine produced in the reaction system is determined by high performance liquid chromatography, and the enzyme activity corresponding to the production of 1 μmol/min. methionine is expressed as 1 unit. When a ymM concentration of methionine has been produced in the reaction system during a reaction time of x minutes, the activity (αunit) of the enzyme in 50 μl solution is calculated by the following equation: [formula]
In Table 4, the enzyme activities are presented in relative activities on the basis of the values obtained in the case of no additives as taken as 100.

[3] = concentration not singled out (1 mM and 10 mM examined)

C[C@H](N)C(=O)O [L-alanine]
Relative Activity (L-form substrate) (acylamino acid racemase [1]): 0

[Cl][Pb][Cl] [PbCl2]
Relative enzyme activity, Additive Concentration 1 mM (acylamino acid racemase [2]): 78
Relative enzyme activity, Additive Concentration 10 mM (acylamino acid racemase [2]): 100

CC(=O)N[C@H](C(=O)O)C(C)C [N-acetyl-L-valine]
Relative Activity (L-form substrate) (acylamino acid racemase [1]): 19

O.O.O.O.O.O.O=S(=O)([O-])[O-].[Ni+2] [NiSO4 .6H2 O]
Relative enzyme activity, Additive Concentration 1 mM (acylamino acid racemase [2]): 460
Relative enzyme activity, Additive Concentration 10 mM (acylamino acid racemase [2]): 0

N[C@H](Cc1ccccc1)C(=O)O [D-phenylalanine]
Relative Activity (D-form substrate) (acylamino acid racemase [1]): 0

O=S(=O)([O-])[O-].[Sn+2] [SnSO4]
Relative enzyme activity, Additive Concentration 1 mM (acylamino acid racemase [2]): 92
Relative enzyme activity, Additive Concentration 10 mM (acylamino acid racemase [2]): 100

CC(=O)N[C@H](Cc1c[nH]c2ccccc12)C(=O)O [N-acetyl-D-tryptophan]
Relative Activity (D-form substrate) (acylamino acid racemase [1]): 10

CC(=O)N[C@H](Cc1ccccc1)C(=O)O [N-acetyl-D-phenylalanine]
Relative Activity (D-form substrate) (acylamino acid racemase [1]): 64

CC(C)[C@H](NC(=O)CCl)C(=O)O [N-chloroacetyl-L-valine]
Relative Activity (L-form substrate) (acylamino acid racemase [1]): 105

O.O.O.O.O.O.O.O=S(=O)([O-])[O-].[Zn+2] [ZnSO4 .7H2 O]
Relative enzyme activity, Additive Concentration 1 mM (acylamino acid racemase [2]): 810
Relative enzyme activity, Additive Concentration 10 mM (acylamino acid racemase [2]): 80

CC[C@H](C)[C@@H](NC(C)=O)C(=O)O [N-acetyl-D-allo-isoleucine]
Relative Activity (D-form substrate) (acylamino acid racemase [1]): 33

CC(=O)N[C@@H](C(=O)O)C(C)C [N-acetyl-D-valine]
Relative Activity (D-form substrate) (acylamino acid racemase [1]): 35

O.O.O.O.O.O.[Cl][Cr]([Cl])[Cl] [CrCl3 .6H2 O]
Relative enzyme activity, Additive Concentration 1 mM (acylamino acid racemase [2]): 96
Relative enzyme activity, Additive Concentration 10 mM (acylamino acid racemase [2]): 100

C[C@@H](N)C(=O)O [D-alanine]
Relative Activity (D-form substrate) (acylamino acid racemase [1]): 0

CC(=O)N[C@@H](C)C(=O)O [N-acetyl-L-alanine]
Relative Activity (L-form substrate) (acylamino acid racemase [1]): 21

CSCC[C@@H](NC(C)=O)C(=O)O [N-acetyl-D-methionine]
Relative Activity (D-form substrate) (acylamino acid racemase [1]): 100

CC(C)[C@@H](NC(=O)CCl)C(=O)O [N-chloroacetyl-D-valine]
Relative Activity (D-form substrate) (acylamino acid racemase [1]): 80

CC(=O)N[C@H](CC(C)C)C(=O)O [N-acetyl-D-leucine]
Relative Activity (D-form substrate) (acylamino acid racemase [1]): 37

CC(C)C[C@@H](N)C(=O)O [D-leucine]
Relative Activity (D-form substrate) (acylamino acid racemase [1]): 0

O.O.O.O.O.O.[Cl-].[Cl-].[Co+2] [CoCl2 .6H2 O]
Effect on enzyme activity (in words) (acylamino acid racemase [2]; at 10 mM): hardly activate the enzyme
Effect on enzyme activity (in words) (acylamino acid racemase [2]; low concentrations (around 1 mM)): noticeable activating effect
Relative enzyme activity, Additive Concentration 10 mM (acylamino acid racemase [2]): 140

CSCC[C@H](NC=O)C(=O)O [N-formyl-L-methionine]
Relative Activity (L-form substrate) (acylamino acid racemase [1]): 63

CC(=O)N[C@H](C)C(=O)O [N-acetyl-D-alanine]
Relative Activity (D-form substrate) (acylamino acid racemase [1]): 33

N[C@@H](Cc1c[nH]c2ccccc12)C(=O)O [L-tryptophan]
Relative Activity (L-form substrate) (acylamino acid racemase [1]): 0

CC(=O)N[C@@H](Cc1ccccc1)C(=O)O [N-acetyl-L-phenylalanine]
Relative Activity (L-form substrate) (acylamino acid racemase [1]): 84

CSCC[C@H](N)C(=O)O [L-methionine]
Relative Activity (L-form substrate) (acylamino acid racemase [1]): 0

CC(C)[C@@H](N)C(=O)O [D-valine]
Relative Activity (D-form substrate) (acylamino acid racemase [1]): 0

CSCC[C@@H](N)C(=O)O [D-methionine]
Relative Activity (D-form substrate) (acylamino acid racemase [1]): 0

CC(=O)N[C@@H](Cc1c[nH]c2ccccc12)C(=O)O [N-acetyl-L-tryptophan]
Relative Activity (L-form substrate) (acylamino acid racemase [1]): 8

[Ca+2].[Cl-].[Cl-] [CaCl2]
Relative enzyme activity, Additive Concentration 1 mM (acylamino acid racemase [2]): 95
Relative enzyme activity, Additive Concentration 10 mM (acylamino acid racemase [2]): 100

N[C@@H](Cc1ccccc1)C(=O)O [L-phenylalanine]
Relative Activity (L-form substrate) (acylamino acid racemase [1]): 0

[Cl-].[Li+] [LiCl]
Relative enzyme activity, Additive Concentration 1 mM (acylamino acid racemase [2]): 100
Relative enzyme activity, Additive Concentration 10 mM (acylamino acid racemase [2]): 120

CSCC[C@@H](NC=O)C(=O)O [N-formyl-D-methionine]
Relative Activity (D-form substrate) (acylamino acid racemase [1]): 40

CC(C)C[C@H](N)C(=O)O [L-leucine]
Relative Activity (L-form substrate) (acylamino acid racemase [1]): 0

O.O.O.O.O.O=S(=O)([O-])[O-].[Cu+2] [CuSO4 .5H2 O]
Effect on enzyme activity (in words) (acylamino acid racemase [2]; [3]): noticeable inhibitory effect
Relative enzyme activity, Additive Concentration 1 mM (acylamino acid racemase [2]): 0
Relative enzyme activity, Additive Concentration 10 mM (acylamino acid racemase [2]): 0

O.O.[Ba+2].[Cl-].[Cl-] [BaCl2 .2H2 O]
Relative enzyme activity, Additive Concentration 1 mM (acylamino acid racemase [2]): 85
Relative enzyme activity, Additive Concentration 10 mM (acylamino acid racemase [2]): 120

O.O.O.O.O.O.O.O=S(=O)([O-])[O-].[Mn+2] [MnSO4 .7H2 O]
Relative enzyme activity, Additive Concentration 1 mM (acylamino acid racemase [2]): 780

CSCC[C@H](NC(C)=O)C(=O)O [N-acetyl-L-methionine]
Relative Activity (L-form substrate) (acylamino acid racemase [1]): 100

O.O.[Na+].[Na+].[O]=[Mo](=[O])([O-])[O-] [NaMoO4 .2H2 O]
Effect on enzyme activity (in words) (acylamino acid racemase [2]; at 10 mM): inhibit the enzyme activity
Relative enzyme activity, Additive Concentration 1 mM (acylamino acid racemase [2]): 96
Relative enzyme activity, Additive Concentration 10 mM (acylamino acid racemase [2]): 0

O.O.O.O.O.O.O.O=S(=O)([O-])[O-].[Fe+2] [FeSO4 .7H2 O]
Relative enzyme activity, Additive Concentration 1 mM (acylamino acid racemase [2]): 100
Relative enzyme activity, Additive Concentration 10 mM (acylamino acid racemase [2]): 560

O=C(O)CN(CCN(CC(=O)O)CC(=O)O)CC(=O)O [EDTA, reference compound]
Effect on enzyme activity (in words) (acylamino acid racemase [2]; at 10 mM): noticeable inhibitory effect
Relative enzyme activity, Additive Concentration 1 mM (acylamino acid racemase [2]): 68
Relative enzyme activity, Additive Concentration 10 mM (acylamino acid racemase [2]): 0

CC(C)[C@H](N)C(=O)O [L-valine]
Relative Activity (L-form substrate) (acylamino acid racemase [1]): 0

O.O.O.O.O.O.O.O=S(=O)([O-])[O-].[Mg+2] [MgSO4 .7H2 O]
Effect on enzyme activity (in words) (acylamino acid racemase [2]; [3]): the activating effect is greater at 10 mM than at 1 mM
Relative enzyme activity, Additive Concentration 1 mM (acylamino acid racemase [2]): 890

O=C(CCl)N[C@@H](Cc1ccccc1)C(=O)O [N-chloroacetyl-L-phenylalanine]
Relative Activity (L-form substrate) (acylamino acid racemase [1]): 112

C[C@@H](NC(=O)c1ccccc1)C(=O)O [N-benzoyl-D-alanine]
Relative Activity (D-form substrate) (acylamino acid racemase [1]): 14

O=C(CCl)N[C@H](Cc1ccccc1)C(=O)O [N-chloroacetyl-D-phenylalanine]
Relative Activity (D-form substrate) (acylamino acid racemase [1]): 90

[Cl-].[K+] [KCl]
Relative enzyme activity, Additive Concentration 1 mM (acylamino acid racemase [2]): 110
Relative enzyme activity, Additive Concentration 10 mM (acylamino acid racemase [2]): 130

N[C@H](Cc1c[nH]c2ccccc12)C(=O)O [D-tryptophan]
Relative Activity (D-form substrate) (acylamino acid racemase [1]): 0

[Cl-].[Na+] [NaCl]
Relative enzyme activity, Additive Concentration 1 mM (acylamino acid racemase [2]): 100
Relative enzyme activity, Additive Concentration 10 mM (acylamino acid racemase [2]): 130

CC(=O)N[C@@H](CC(C)C)C(=O)O [N-acetyl-L-leucine]
Relative Activity (L-form substrate) (acylamino acid racemase [1]): 74

O.O.O.O.O.O.O.O.O.O.O.O.O.O.O.O.O=S(=O)([O-])[O-].O=S(=O)([O-])[O-].O=S(=O)([O-])[O-].[Al+3].[Al+3] [Al2 (SO4)3 .16H2 O]
Effect on enzyme activity (in words) (acylamino acid racemase [2]; at 10 mM): inhibit the enzyme activity
Relative enzyme activity, Additive Concentration 1 mM (acylamino acid racemase [2]): 79
Relative enzyme activity, Additive Concentration 10 mM (acylamino acid racemase [2]): 0

O.O.O.O.O.O.[Cl-].[Cl-].[Sr+2] [SrCl2 .6H2 O]
Relative enzyme activity, Additive Concentration 1 mM (acylamino acid racemase [2]): 94
Relative enzyme activity, Additive Concentration 10 mM (acylamino acid racemase [2]): 110
